The series is described as follows: recombinant barcode read abundance after kanamycin selection (control-corrected) (log10(CPM+1)); higher = more efficient recombination; sequences stand for … in AGTGCAGAGAAAATCGGCCAGTTTTCTCTGCCTGCAGTCCGCATGCCGT…AGATTTATGCAGCGGACTGCCTTTCTCCCAAAGTGATAAACCGGACAGTATCATGGACCGGTTTTCCCGGTAATCCGTATTTGCAAGGTTGGTTTCACT; site = the 11-nt target. The essentials:
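Reported as log10(CPM+1), each value stands for recombination efficiency. That efficiency is the averaged, control-corrected counts per million of barcodes found at recombinant junctions. Cells from a pooled E. coli library pairing targets with IS621 bridge RNA target-binding loops were plated twice on chloramphenicol/ampicillin LB agar (control) and twice on chloramphenicol/ampicillin/kanamycin with 0.1 mM IPTG.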
Turning to “CGAGGGTCTTGGGTTCTAACCTGTTGCTT (site CGAGGGTCTAA)”, the “recombinant barcode read abundance (log10)” value was 1.82.

On to “CGAGGGTCTTGGGTTCTAACCTGTTGCTT (site GGAGGGTCTAA)”, for which the “recombinant barcode read abundance (log10)” value worked out at 0.413.

Take “CGAGGGTCTTGGGTTCTAACCTGTTGCTT (site TGAGGGTCTAA)”: the “recombinant barcode read abundance (log10)” value was 0.147.

Turning to “CGAGGTTCTTGGGTTCTAACCTGTTGCCT (site CGAGGTTCTAG)”, the “recombinant barcode read abundance (log10)” value was 1.06.

As for “CGAGGTTCTTGGGTTCTAACCTGTTGCCT (site CGCGGTTCTAG)”, the “recombinant barcode read abundance (log10)” value turned out to be 0.212.

For “CGAGTCCCTTGGGTTCTAACCTGTTGCAG (site ATCTAAACTAG)”, the “recombinant barcode read abundance (log10)” value was determined as 0.137.

With “CGAGTCCCTTGGGTTCTAACCTGTTGCAG (site CGAGTCCCTCT)”, the “recombinant barcode read abundance (log10)” value is 2.15.

As to “CGAGTGTCTTGGGTTCTAACCTGTTGCTA (site CGAGTGTCTTA)”, the “recombinant barcode read abundance (log10)” value stood at 1.96.

Consider “CGAGTGTCTTGGGTTCTAACCTGTTGCTA (site GATCACCCTAT)”, for which the “recombinant barcode read abundance (log10)” value is 0.0951.

As for “CGATCATCTTGGGTTCTAACCTGTTGCCT (site CGATCATCTAG)”, the “recombinant barcode read abundance (log10)” value came out at 0.103.

As for “CGATCATCTTGGGTTCTAACCTGTTGCCT (site CGCTCATCTAG)”, the “recombinant barcode read abundance (log10)” value worked out at 0.0503.

“CGATCATCTTGGGTTCTAACCTGTTGCCT (site CGGTCATCTAG)”: the “recombinant barcode read abundance (log10)” value stood at 0.173.

On to “CGATCATCTTGGGTTCTAACCTGTTGCCT (site CGTTCATCTAG)”, for which the “recombinant barcode read abundance (log10)” value worked out at 0.0823.

With “CGATCCACTTGGGTTCTAACCTGTTGCCT (site AGATCCACTAG)”, the “recombinant barcode read abundance (log10)” value was found to be 0.0256.

As to “CGATCCACTTGGGTTCTAACCTGTTGCCT (site CGATCCACTAG)”, the “recombinant barcode read abundance (log10)” value was found to be 0.0891.

Turning to “CGATCCACTTGGGTTCTAACCTGTTGCCT (site GGATCCACTAG)”, the “recombinant barcode read abundance (log10)” value amounted to 1.56.

In the case of “CGATCCACTTGGGTTCTAACCTGTTGCCT (site TGATCCACTAG)”, the “recombinant barcode read abundance (log10)” value amounted to 0.0673.

For the sequence “CGATCTCCTTGGGTTCTAACCTGTTGCAC (site ACTCACTCTAG)”, the “recombinant barcode read abundance (log10)” value is 0.0376.

For the sequence “CGATCTCCTTGGGTTCTAACCTGTTGCAC (site CGATCTCCTGT)”, the “recombinant barcode read abundance (log10)” value was determined as 0.303.

Turning to “CGATGACCTTGGGTTCTAACCTGTTGCAT (site CGATGACCTAT)”, the “recombinant barcode read abundance (log10)” value is 1.48.

For the sequence “CGATGACCTTGGGTTCTAACCTGTTGCAT (site CGATGGCCTAT)”, the “recombinant barcode read abundance (log10)” value turned out to be 0.107.

For “CGATGGCCTTGGGTTCTAACCTGTTGCAT (site CGATGACCTAT)”, the “recombinant barcode read abundance (log10)” value is 0.388.

As to “CGATGGCCTTGGGTTCTAACCTGTTGCAT (site CGATGGCCTAT)”, the “recombinant barcode read abundance (log10)” value came out at 0.433.

As to “CGATTAGCTTGGGTTCTAACCTGTTGCCG (site ATTCACACTAC)”, the “recombinant barcode read abundance (log10)” value turned out to be 0.0236.

For “CGATTAGCTTGGGTTCTAACCTGTTGCCG (site CGATTAGCTCG)”, the “recombinant barcode read abundance (log10)” value was 0.536.

For “CGATTATCTTGGGTTCTAACCTGTTGCCT (site CGATTAACTAG)”, the “recombinant barcode read abundance (log10)” value turned out to be 0.25.

For “CGATTATCTTGGGTTCTAACCTGTTGCCT (site CGATTACCTAG)”, the “recombinant barcode read abundance (log10)” value was 0.162.

In the case of “CGATTATCTTGGGTTCTAACCTGTTGCCT (site CGATTAGCTAG)”, the “recombinant barcode read abundance (log10)” value turned out to be 0.0752.

For the sequence “CGATTATCTTGGGTTCTAACCTGTTGCCT (site CGATTATCTAG)”, the “recombinant barcode read abundance (log10)” value was found to be 0.0534.

In the case of “CGCAAGCCTTGGGTTCTAACCTGTTGCAT (site CGCAAGCCTAT)”, the “recombinant barcode read abundance (log10)” value was 0.0608.

As for “CGCAAGCCTTGGGTTCTAACCTGTTGCAT (site CGTAAGCCTAT)”, the “recombinant barcode read abundance (log10)” value amounted to 0.

For “CGCAGCCCTTGGGTTCTAACCTGTTGCAT (site CGCAGCCCTAT)”, the “recombinant barcode read abundance (log10)” value turned out to be 0.462.

For the sequence “CGCAGCCCTTGGGTTCTAACCTGTTGCAT (site CGGAGCCCTAT)”, the “recombinant barcode read abundance (log10)” value was 0.0663.

On to “CGCAGCTCTTGGGTTCTAACCTGTTGCCT (site CGAAGCTCTAG)”, for which the “recombinant barcode read abundance (log10)” value is 0.0165.

On to “CGCAGCTCTTGGGTTCTAACCTGTTGCCT (site CGCAGCTCTAG)”, for which the “recombinant barcode read abundance (log10)” value was determined as 0.0301.

As to “CGCAGCTCTTGGGTTCTAACCTGTTGCCT (site CGGAGCTCTAG)”, the “recombinant barcode read abundance (log10)” value came out at 0.0445.

Turning to “CGCAGCTCTTGGGTTCTAACCTGTTGCCT (site CGTAGCTCTAG)”, the “recombinant barcode read abundance (log10)” value came to 0.511.

Regarding “CGCCCTCCTTGGGTTCTAACCTGTTGCAT (site CGCCATCCTAT)”, the “recombinant barcode read abundance (log10)” value is 0.0837.

On to “CGCCCTCCTTGGGTTCTAACCTGTTGCAT (site CGCCCTCCTAT)”, for which the “recombinant barcode read abundance (log10)” value was 0.362.

As to “CGCCCTCCTTGGGTTCTAACCTGTTGCAT (site CGCCGTCCTAT)”, the “recombinant barcode read abundance (log10)” value was found to be 0.117.

Regarding “CGCCCTCCTTGGGTTCTAACCTGTTGCAT (site CGCCTTCCTAT)”, the “recombinant barcode read abundance (log10)” value amounted to 0.0322.

Take “CGCCGCCCTTGGGTTCTAACCTGTTGCCT (site AGCCGCCCTAT)”: the “recombinant barcode read abundance (log10)” value came to 0.447.

In the case of “CGCCGCCCTTGGGTTCTAACCTGTTGCCT (site CGCCGCCCTAG)”, the “recombinant barcode read abundance (log10)” value amounted to 0.18.

“CGCCTCTCTTGGGTTCTAACCTGTTGCCT (site CGCCTCACTAG)”: the “recombinant barcode read abundance (log10)” value is 0.0921.

In the case of “CGCCTCTCTTGGGTTCTAACCTGTTGCCT (site CGCCTCCCTAG)”, the “recombinant barcode read abundance (log10)” value turned out to be 0.211.

On to “CGCCTCTCTTGGGTTCTAACCTGTTGCCT (site CGCCTCGCTAG)”, for which the “recombinant barcode read abundance (log10)” value was found to be 0.307.

In the case of “CGCCTCTCTTGGGTTCTAACCTGTTGCCT (site CGCCTCTCTAG)”, the “recombinant barcode read abundance (log10)” value was determined as 0.0707.

Regarding “CGCGAATCTTGGGTTCTAACCTGTTGCTT (site CGCGAATCTAA)”, the “recombinant barcode read abundance (log10)” value was 0.0373.

For “CGCGAATCTTGGGTTCTAACCTGTTGCTT (site CGCGGGTCTAA)”, the “recombinant barcode read abundance (log10)” value worked out at 0.168.

Consider “CGCGCGGCTTGGGTTCTAACCTGTTGCCT (site CGCGCGGCTAG)”, for which the “recombinant barcode read abundance (log10)” value turned out to be 0.251.

With “CGCGCGGCTTGGGTTCTAACCTGTTGCCT (site CGCGGGGCTAG)”, the “recombinant barcode read abundance (log10)” value was determined as 0.266.

Regarding “CGCGGTTCTTGGGTTCTAACCTGTTGCCT (site CGAGGTTCTAG)”, the “recombinant barcode read abundance (log10)” value is 0.339.

Regarding “CGCGGTTCTTGGGTTCTAACCTGTTGCCT (site CGCGGTTCTAG)”, the “recombinant barcode read abundance (log10)” value was 0.0855.

“CGCGTTGCTTGGGTTCTAACCTGTTGCCT (site AAGCCCACTCC)”: the “recombinant barcode read abundance (log10)” value was found to be 0.0136.

As for “CGCGTTGCTTGGGTTCTAACCTGTTGCCT (site CGCGTTGCTAG)”, the “recombinant barcode read abundance (log10)” value is 0.48.

With “CGCTCGTCTTGGGTTCTAACCTGTTGCCT (site CGCTAGTCTAG)”, the “recombinant barcode read abundance (log10)” value amounted to 0.0163.

For the sequence “CGCTCGTCTTGGGTTCTAACCTGTTGCCT (site CGCTCGTCTAG)”, the “recombinant barcode read abundance (log10)” value turned out to be 0.00559.

Regarding “CGCTCGTCTTGGGTTCTAACCTGTTGCCT (site CGCTGGTCTAG)”, the “recombinant barcode read abundance (log10)” value amounted to 0.0376.

On to “CGCTCGTCTTGGGTTCTAACCTGTTGCCT (site CGCTTGTCTAG)”, for which the “recombinant barcode read abundance (log10)” value was determined as 0.163.

For “CGCTGTCCTTGGGTTCTAACCTGTTGCTT (site CGCTGACCTAA)”, the “recombinant barcode read abundance (log10)” value stood at 0.156.

For “CGCTGTCCTTGGGTTCTAACCTGTTGCTT (site CGCTGCCCTAA)”, the “recombinant barcode read abundance (log10)” value was 0.148.

“CGCTGTCCTTGGGTTCTAACCTGTTGCTT (site CGCTGGCCTAA)”: the “recombinant barcode read abundance (log10)” value was found to be 0.348.

In the case of “CGCTGTCCTTGGGTTCTAACCTGTTGCTT (site CGCTGTCCTAA)”, the “recombinant barcode read abundance (log10)” value came out at 0.176.

Regarding “CGGAACCCTTGGGTTCTAACCTGTTGCCG (site CGGAACCCTCG)”, the “recombinant barcode read abundance (log10)” value came out at 1.22.

As for “CGGAACCCTTGGGTTCTAACCTGTTGCCG (site CGGAGCCCTTG)”, the “recombinant barcode read abundance (log10)” value came to 0.11.

In the case of “CGGAAGACTTGGGTTCTAACCTGTTGCCT (site CGGAAGACTAG)”, the “recombinant barcode read abundance (log10)” value amounted to 1.98.

Regarding “CGGAAGACTTGGGTTCTAACCTGTTGCCT (site CGGAAGCCTAG)”, the “recombinant barcode read abundance (log10)” value was found to be 0.121.

On to “CGGAAGACTTGGGTTCTAACCTGTTGCCT (site CGGAAGGCTAG)”, for which the “recombinant barcode read abundance (log10)” value was 0.537.

Consider “CGGAAGACTTGGGTTCTAACCTGTTGCCT (site CGGAAGTCTAG)”, for which the “recombinant barcode read abundance (log10)” value worked out at 0.516.

As to “CGGAAGCCTTGGGTTCTAACCTGTTGCCT (site CGGAAGACTAG)”, the “recombinant barcode read abundance (log10)” value turned out to be 0.0744.

With “CGGAAGCCTTGGGTTCTAACCTGTTGCCT (site CGGAAGCCTAG)”, the “recombinant barcode read abundance (log10)” value came out at 1.74.

Regarding “CGGAAGCCTTGGGTTCTAACCTGTTGCCT (site CGGAAGGCTAG)”, the “recombinant barcode read abundance (log10)” value came out at 0.0821.

“CGGAAGCCTTGGGTTCTAACCTGTTGCCT (site CGGAAGTCTAG)”: the “recombinant barcode read abundance (log10)” value amounted to 0.818.

Regarding “CGGAAGGCTTGGGTTCTAACCTGTTGCCT (site CGGAAGACTAG)”, the “recombinant barcode read abundance (log10)” value turned out to be 0.036.

Take “CGGAAGGCTTGGGTTCTAACCTGTTGCCT (site CGGAAGCCTAG)”: the “recombinant barcode read abundance (log10)” value stood at 0.0918.

As for “CGGAAGGCTTGGGTTCTAACCTGTTGCCT (site CGGAAGGCTAG)”, the “recombinant barcode read abundance (log10)” value was 0.89.

For “CGGAAGGCTTGGGTTCTAACCTGTTGCCT (site CGGAAGTCTAG)”, the “recombinant barcode read abundance (log10)” value is 0.401.

These data come from the supplement of paper PMC11208160.
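Further: IS621 recombinase and bridge RNA in Escherichia coli cells.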
